# In DBAASP:
# What was measured:
# Test in all cases: ≥ marks a high value that may be exact or a test limit, other limits are often not marked, values filed in µg/mL are converted to µM
# [1] = system: Staphylococcus aureus KCTC 1621
# [2] = system: Escherichia coli KCTC 1682
# [3] = system: Salmonella typhimurium KCTC 1926
# [4] = system: Streptococcus pyogenes KCTC 3096
# [5] = system: Candida albicans TIMM 1768
# [6] = system: Bacillus subtilis KCTC 1918
# [7] = system: Pseudomonas aeruginosa KCTC 1637
# [8] = system: Aspergillus fumigatus KCTC 4165
# [9] = system: Aerococcus viridans
# [10] = system: Escherichia coli D22
# [11] = system: Escherichia coli 1106
# [12] = system: Pseudomonas alginovora
# [13] = system: Enterococcus faecalis
# [14] = system: Pseudoalteromonas carrageenovora ATCC 43555
# [15] = system: Micrococcus luteus
# [16] = system: Salmonella typhimurium
# [17] = system: Escherichia coli D31
# [18] = system: Staphylococcus aureus
# [19] = system: Bacillus megaterium
structure (smiles),measurement,setting,value
CCC(C)C(NC(=O)C(CCCCN)NC(=O)C(CCCCN)NC(=O)C(CC(C)C)NC(=O)C(CCCCN)NC(=O)C(CCC(=O)O)NC(=O)CN)C(=O)NCC(=O)NC(CCC(N)=O)C(=O)NC(CCCCN)C(=O)NC(C(=O)NC(CCCCN)C(=O)NC(CC(N)=O)C(=O)NC(Cc1ccccc1)C(=O)NC(Cc1ccccc1)C(=O)NC(CCC(N)=O)C(=O)NC(CCCCN)C(=O)NC(CC(C)C)C(=O)O)C(C)CC (centres undefined) [GEKLKKIGQKIKNFFQKL],MIC,[1],≥ 50 µM
same,MIC,[2],≥ 50 µM
same,MIC,[3],12.5 µM
same,MIC,[4],≥ 50 µM
same,MIC,[5],≥ 50 µM
same,MIC,[6],≥ 50 µM
same,MIC,[7],12.5 µM
same,MIC,[8],≥ 100 µM
CC[C@H](C)[C@H](NC(=O)CN)C(=O)NCC(=O)N[C@@H](CCCCN)C(=O)N[C@@H](Cc1ccccc1)C(=O)N[C@@H](CC(C)C)C(=O)N[C@@H](CCCCN)C(=O)N[C@@H](CCCCN)C(=O)N[C@@H](C)C(=O)N[C@@H](CCCCN)C(=O)N[C@@H](CCCCN)C(=O)N[C@@H](Cc1ccccc1)C(=O)NCC(=O)N[C@@H](CCCCN)C(=O)N[C@@H](C)C(=O)N[C@@H](Cc1ccccc1)C(=O)N[C@H](C(=O)N[C@@H](CCCCN)C(=O)N[C@@H](CCSC)C(=O)N[C@@H](CCCCN)C(=O)N[C@@H](CCCCN)C(N)=O)C(C)C [GIGKFLKKAKKFGKAFVKMKK],MIC,[9],0.707 µM
same,MIC,[10],1.41 µM
same,MIC,[11],1.41 µM
same,MIC,[12],14.1 µM
same,MIC,[13],12.6 µM
same,MIC,[14],7.07 µM
same,MIC,[15],0.707 µM
same,MIC,[16],2.83 µM
same,MIC,[17],1.41 µM
same,MIC,[18],1.41 µM
same,MIC,[19],0.707 µM
